Assay results from patent publication US5066652A, “Thiomethyl and sulfinylmethyl derivatives having gastric acid antisectetory activity and pharmaceutical compositions containing them” (Chiesi Farmaceutici S.p.A., priority 1988, dated 1991).
Structures can show the parent of a compound that is named as a salt.

System: not listed separately
Experiment: Toxicity after single administration (acute toxicity, oral)
Conditions: mouse, in vivo, mice, p.o., lethality 7 days after treatment, Probits method, read-out: Acute Toxicity (DL50 approx. mg/kg p.o.)
Experimental: Toxicity after single administration.
The tests have been carried out in IVA:NMRI (SPF) mice fasted with water ad libitum since 18 hours before treatment.
The compounds were administered by the oral route, at constant volume (10 ml/kg) in a 0.2% aqueous solution of Tween 80.
On the basis of lethality observed 7 days after the treatment, the approximate LD50 were determined according to the Probits method.

| SMILES | LD50 at 168 h [mg/kg] |
| --- | --- |
| COc1ccc2[nH]c([S+]([O-])Cc3ncc(C)c(OC)c3C)nc2c1 (stereo not drawn) [Omeprazole HCL, reference compound] | ~1400 |
| c1ccc(-n2ccnc2SCc2nc3ccccc3[nH]2)cc1 [XXII, 1-phenyl-2-[2'-(benzimidazolyl)methylthio]imidazole.2HCl] | ~1000 |
| Fc1cccc(-n2ccnc2SCc2nc3ccccc3[nH]2)c1 [XXI, 1-(3'-fluorophenyl)-2-[2'-(benzimidazolyl)methylthio]imidazole.2HCl] | ~900 |
| COc1ccc(-n2ccnc2SCc2ccccc2N(C)C)cc1 [XXIX, 1-(4'-methoxyphenyl)-2-[2 '-(N,N-dimethylanilyl)methylthio]imidazole.2HCl] | > 2000 |
| CN(C)c1ccccc1CSc1nccn1C [XI, 1-methyl-2-[2'-(N,N-dimethylanilyl)methylthio]imidazole. 2HCl] | ~450 |
| [O-][S+](Cc1ccc2ccccc2n1)c1nc2cccnc2[nH]1 (stereo not drawn) [LI, 2-(2'-quinolylmethylsulfinyl)imidazo-[4,5-b]-pyridine] | ~750 |
| Cn1ccnc1SCc1nc2cc(C(=O)c3ccccc3)ccc2[nH]1 [X, 1-methyl-2-[2'-(5'-benzoyl)-benzimidazolylmethylthio]imidazole. 2H3 PO4] | ~1400 |

System: secretion of hydrochloric acid in the stomach (Shay ulcers)
Experiment: Antisecretory activity - Shay ulcers (pylorus-ligated rat)
Format: in vivo
Conditions: Rattus norvegicus, 2 h; α=1 represents 100% inhibition of gastric acid hypersecretion; read-out: α (approximate value of intrinsic activity)
Experimental: Antisecretory activity--Shay ulcers The gastric secretory inhibitory activity of the compounds of general formula (I) was determined in case of hypersecretion induced in the rat by ligation of gastroduodenal junction according to the procedure described by Shay (Shay H. et al, Gasgroenterology 5, 43-61, 1945). […] Thereafter, they were fasted for 24 hours, with water ad libitum, which period was sufficient to assure a good gastric emptying, then laparectomized under light ether anesthesia, so as to allow to effect a pylorus ligation as closer as possible to the gastroduodenal junction. Two hours after the ligation, the animals were killed by means of an ether excess and stomaches were removed. Gastric contents were recovered, after filtration through a gauze, and placed in graduated test-tubes and centrifuged at 3000×g for 15 minutes. The following parameters were evaluated on the surnatant: volume (ml); pH; free acidity by conversion of pH into H^+ μEq by means of Moore table (Ann. New York Acad. Sci. 1967, 866-874); titrable acidity, by titration of an amount with 0.02N NaOH, using phenolphtalein as the indicator. […] The results were expressed as percent inhibition of hypersecretion induced by pylorus ligation in the control rats. The obtained results are reported in table 3 as: ED50 (μmol/kg) calculated on the basis of the equation of the linear tract of does-effect curves obtained with the test compounds on volume, free and titrable acidities; […]

| SMILES | Emax [%] |
| --- | --- |
| c1ccc(-n2ccnc2SCc2nc3ccccc3[nH]2)cc1 [XXII, 1-phenyl-2-[2'-(benzimidazolyl)methylthio]imidazole.2HCl] | 80 |
| Fc1cccc(-n2ccnc2SCc2nc3ccccc3[nH]2)c1 [XXI, 1-(3'-fluorophenyl)-2-[2'-(benzimidazolyl)methylthio]imidazole.2HCl] | 100 |
| COc1ccc(-n2ccnc2SCc2ccccc2N(C)C)cc1 [XXIX, 1-(4'-methoxyphenyl)-2-[2 '-(N,N-dimethylanilyl)methylthio]imidazole.2HCl] | 100 |
| CN(C)c1ccccc1CSc1nccn1C [XI, 1-methyl-2-[2'-(N,N-dimethylanilyl)methylthio]imidazole. 2HCl] | 100 |
| [O-][S+](Cc1ccc2ccccc2n1)c1nc2cccnc2[nH]1 (stereo not drawn) [LI, 2-(2'-quinolylmethylsulfinyl)imidazo-[4,5-b]-pyridine] | 100 |
| Cn1ccnc1SCc1nc2cc(C(=O)c3ccccc3)ccc2[nH]1 [X, 1-methyl-2-[2'-(5'-benzoyl)-benzimidazolylmethylthio]imidazole. 2H3 PO4] | 70 to 80 |

Same assay, conditions: rat, pylorus ligation, 2 h, intraduodenal or intravenous; free acid output; read-out: ED50 free acid output

| SMILES | ED50 [µmol/kg] |
| --- | --- |
| c1ccc(-n2ccnc2SCc2nc3ccccc3[nH]2)cc1 [XXII, 1-phenyl-2-[2'-(benzimidazolyl)methylthio]imidazole.2HCl] | 16.8 |
| Fc1cccc(-n2ccnc2SCc2nc3ccccc3[nH]2)c1 [XXI, 1-(3'-fluorophenyl)-2-[2'-(benzimidazolyl)methylthio]imidazole.2HCl] | 27 |
| COc1ccc(-n2ccnc2SCc2ccccc2N(C)C)cc1 [XXIX, 1-(4'-methoxyphenyl)-2-[2 '-(N,N-dimethylanilyl)methylthio]imidazole.2HCl] | 86.1 |
| CN(C)c1ccccc1CSc1nccn1C [XI, 1-methyl-2-[2'-(N,N-dimethylanilyl)methylthio]imidazole. 2HCl] | 31.9 |
| [O-][S+](Cc1ccc2ccccc2n1)c1nc2cccnc2[nH]1 (stereo not drawn) [LI, 2-(2'-quinolylmethylsulfinyl)imidazo-[4,5-b]-pyridine] | 4.8 |
| Cn1ccnc1SCc1nc2cc(C(=O)c3ccccc3)ccc2[nH]1 [X, 1-methyl-2-[2'-(5'-benzoyl)-benzimidazolylmethylthio]imidazole. 2H3 PO4] | 2.7 |

Same assay, conditions: rat, pylorus ligation, 2 h, intraduodenal or intravenous; secretion volume; read-out: ED50 volume

| SMILES | ED50 [µmol/kg] |
| --- | --- |
| c1ccc(-n2ccnc2SCc2nc3ccccc3[nH]2)cc1 [XXII, 1-phenyl-2-[2'-(benzimidazolyl)methylthio]imidazole.2HCl] | 30.5 |
| Fc1cccc(-n2ccnc2SCc2nc3ccccc3[nH]2)c1 [XXI, 1-(3'-fluorophenyl)-2-[2'-(benzimidazolyl)methylthio]imidazole.2HCl] | 38 |
| COc1ccc(-n2ccnc2SCc2ccccc2N(C)C)cc1 [XXIX, 1-(4'-methoxyphenyl)-2-[2 '-(N,N-dimethylanilyl)methylthio]imidazole.2HCl] | 144 |
| CN(C)c1ccccc1CSc1nccn1C [XI, 1-methyl-2-[2'-(N,N-dimethylanilyl)methylthio]imidazole. 2HCl] | 40 |
| [O-][S+](Cc1ccc2ccccc2n1)c1nc2cccnc2[nH]1 (stereo not drawn) [LI, 2-(2'-quinolylmethylsulfinyl)imidazo-[4,5-b]-pyridine] | 10.3 |
| Cn1ccnc1SCc1nc2cc(C(=O)c3ccccc3)ccc2[nH]1 [X, 1-methyl-2-[2'-(5'-benzoyl)-benzimidazolylmethylthio]imidazole. 2H3 PO4] | 10 |

Same assay, conditions: rat, pylorus ligation, 2 h, intraduodenal or intravenous; titratable acid output; read-out: ED50 titratable acid output

| SMILES | ED50 [µmol/kg] |
| --- | --- |
| c1ccc(-n2ccnc2SCc2nc3ccccc3[nH]2)cc1 [XXII, 1-phenyl-2-[2'-(benzimidazolyl)methylthio]imidazole.2HCl] | 22.3 |
| Fc1cccc(-n2ccnc2SCc2nc3ccccc3[nH]2)c1 [XXI, 1-(3'-fluorophenyl)-2-[2'-(benzimidazolyl)methylthio]imidazole.2HCl] | 29 |
| COc1ccc(-n2ccnc2SCc2ccccc2N(C)C)cc1 [XXIX, 1-(4'-methoxyphenyl)-2-[2 '-(N,N-dimethylanilyl)methylthio]imidazole.2HCl] | 107 |
| CN(C)c1ccccc1CSc1nccn1C [XI, 1-methyl-2-[2'-(N,N-dimethylanilyl)methylthio]imidazole. 2HCl] | 29.6 |
| [O-][S+](Cc1ccc2ccccc2n1)c1nc2cccnc2[nH]1 (stereo not drawn) [LI, 2-(2'-quinolylmethylsulfinyl)imidazo-[4,5-b]-pyridine] | 5.6 |
| Cn1ccnc1SCc1nc2cc(C(=O)c3ccccc3)ccc2[nH]1 [X, 1-methyl-2-[2'-(5'-benzoyl)-benzimidazolylmethylthio]imidazole. 2H3 PO4] | 2.7 |

Same assay, conditions: ratio of mean ED50 on the 3 parameters of test compound to mean ED50 of omeprazole

| SMILES | PR (potency ratio in comparison with Omeprazole) |
| --- | --- |
| c1ccc(-n2ccnc2SCc2nc3ccccc3[nH]2)cc1 [XXII, 1-phenyl-2-[2'-(benzimidazolyl)methylthio]imidazole.2HCl] | 8,4 |
| Fc1cccc(-n2ccnc2SCc2nc3ccccc3[nH]2)c1 [XXI, 1-(3'-fluorophenyl)-2-[2'-(benzimidazolyl)methylthio]imidazole.2HCl] | 11,3 |
| COc1ccc(-n2ccnc2SCc2ccccc2N(C)C)cc1 [XXIX, 1-(4'-methoxyphenyl)-2-[2 '-(N,N-dimethylanilyl)methylthio]imidazole.2HCl] | 40,7 |
| CN(C)c1ccccc1CSc1nccn1C [XI, 1-methyl-2-[2'-(N,N-dimethylanilyl)methylthio]imidazole. 2HCl] | 12,2 |
| [O-][S+](Cc1ccc2ccccc2n1)c1nc2cccnc2[nH]1 (stereo not drawn) [LI, 2-(2'-quinolylmethylsulfinyl)imidazo-[4,5-b]-pyridine] | 2,5 |
| Cn1ccnc1SCc1nc2cc(C(=O)c3ccccc3)ccc2[nH]1 [X, 1-methyl-2-[2'-(5'-benzoyl)-benzimidazolylmethylthio]imidazole. 2H3 PO4] | 1,9 |

System: secretion of hydrochloric acid in the stomach
Experiment: Lumen-perfused rat stomach in situ (histamine-induced hypersecretion)
Format: in vivo
Conditions: histamine 35 mcg/kg/min, intraduodenal, 3 hours, read-out: ED50 free acid output
Experimental: Lumen-perfused rat stomach in situ The experiments were done according to Ghosh M. N. and Schild H. O. (Br. J. Pharmacol. 13, 54-61, 1958). […] After a midline abdominal incision, a PVC tube was inserted into the stomach via the esophagus and the stomach was perfused with saline (37° C.) at a rate of 1 ml/min. A second tube draining the pylorus was inserted through the abdominal wall for collection of gastric secretion. […] After equilibration of basal secretion an hypersecretion was induced by infusion of histamine 35 mcg/kg/min, through the femoral vein. […] Mean gastric output was determined for a 3 hours test period following drug administration. The last 30 minutes interval prior to dosing was used as a control. The dose-response relationship was established using the maximum inhibition obtained at each individual dose.

| SMILES | ED50 [µmol/kg] |
| --- | --- |
| CN(C)c1ccccc1CSc1nccn1C [XI, 1-methyl-2-[2'-(N,N-dimethylanilyl)methylthio]imidazole. 2HCl] | 60.6 |

Same assay, conditions: histamine 35 mcg/kg/min, intraduodenal, 3 hours, read-out: ED50 titratable acid output

| SMILES | ED50 [µmol/kg] |
| --- | --- |
| CN(C)c1ccccc1CSc1nccn1C [XI, 1-methyl-2-[2'-(N,N-dimethylanilyl)methylthio]imidazole. 2HCl] | 40.9 |

Same assay, conditions: histamine, intraduodenal

| SMILES | α (intrinsic activity) |
| --- | --- |
| CN(C)c1ccccc1CSc1nccn1C [XI, 1-methyl-2-[2'-(N,N-dimethylanilyl)methylthio]imidazole. 2HCl] | 1 |

Same assay, conditions: in comparison with omeprazole

| SMILES | PR = potency ratio |
| --- | --- |
| CN(C)c1ccccc1CSc1nccn1C [XI, 1-methyl-2-[2'-(N,N-dimethylanilyl)methylthio]imidazole. 2HCl] | 22.4 |

System: gastric hemorrhagic lesions induced by absolute ethanol
Experiment: Protection against gastric lesions induced in rats by necrotizing agents (absolute ethanol)
Format: in vivo
Conditions: po; rat, gavage 30 minutes before 1 ml absolute ethanol; lesion score ≤ 2 considered protected
Experimental: Protection against gastric lesions induced in rats by necrotizing agents
The experiments were done on male rats weighing 260-300 g starved (with free access to water) for 18 hours.
Absolute ethanol was administered by gavage in the volume of 1 ml.
Test substances or the vehicle alone for the controls were given by gavage 30 minutes before the necrotizing agent in a 5% suspension of methylcellulose volume 2.5 ml kg^-1. One hour after administration of the necrotizing agent, the animals were killed and examined for lesions of the glandular portion of the gastric mucosa. The lesions presenting as blackish lesions grouped in patches of varying size, usually parallel to the major axis of the stomach, were scored according to the following arbitrary scale:
1=hyperemic mucosa, or up to 3 small patches;
2=from 4 to 10 small patches;
3=more than 10 small or up to 3 medium-sized patches;
4=from 4 to 6 medium-sized patches;
5=more than 6 medium-sized or up to 3 large patches;
6=from 4 to 6 large patches;
7=from 7 to 10 large patches;
8=more than 10 large patches or extensive necrotic zones.
"Small"0 was defined as up to 2 mm across (max diameter), "medium-sized" as between 2 and 4 mm across and "large" as more than 4 mm across.
Animals with gastric lesion score ≤ 2 were considered protected.
ED50 values were calculated according to Wilcoxon method.
The results are expressed in table 5.

| SMILES | ED50 [mg/kg] |
| --- | --- |
| c1ccc(-n2ccnc2SCc2nc3ccccc3[nH]2)cc1 [XXII, 1-phenyl-2-[2'-(benzimidazolyl)methylthio]imidazole.2HCl] | 63 |
| Fc1cccc(-n2ccnc2SCc2nc3ccccc3[nH]2)c1 [XXI, 1-(3'-fluorophenyl)-2-[2'-(benzimidazolyl)methylthio]imidazole.2HCl] | 70 |
| CN(C)c1ccccc1CSc1nccn1C [XI, 1-methyl-2-[2'-(N,N-dimethylanilyl)methylthio]imidazole. 2HCl] | 20 |
| [O-][S+](Cc1ccc2ccccc2n1)c1nc2cccnc2[nH]1 (stereo not drawn) [LI, 2-(2'-quinolylmethylsulfinyl)imidazo-[4,5-b]-pyridine] | 20 |
